# Where “and” joins values, the source holds several entries; their conditions need not be identical. Equal entries are not always repeated. Where two headings read alike, the source gives them in different places.
# Columns and labels:
# [1] = test system: influenza A H5N1 Duck/MN/1525/81 virus; settings: mouse, in vivo; cited from earlier work
# [2] = test system: H1N1/A/California/04/09 influenza virus; set-up: species or system BALB/c mice; settings: mouse, in vivo
# [3] = test system: influenza A H5N1 Duck/MN/1525/81 virus; set-up: species or system BALB/c mice; settings: mouse, in vivo
# H5N1 influenza virus = test system: H5N1 influenza virus; set-up: species or system BALB/c mice; settings: mouse, in vivo
# [4] = test system: H1N1/A/California/04/09 influenza virus; assay: Body weight of mice in lethal H1N1 influenza infection; format: in vivo, BALB/c mice; settings: FIG. 3A, 3B
# [5] = test system: cytokine and chemokine levels in lungs of mice infected with H5N1 influenza virus; set-up: species or system BALB/c mice; settings: mouse, in vivo
# [6] = test system: inflammatory cytokines IL2, IFN-γ, TNF-α; settings: reference [9]; cited from earlier work
compound,measurement,setting,value
"CCOC(=O)C1=C[C@@H](OC(CC)CC)[C@H](NC(C)=O)[C@@H](N)C1 [Oseltamivir, reference compound]",survival routinely yielded by this Oseltamivir dose,[1],10-30%
same,survival,[2],30%
same,survival,[3],70% and 50%
(D-Ala)-SPMLVAYD-(D-Ala) (XSPMLVAYDX; D-Ala at both termini; (D-A)-p2TA-(D-A); (1)..(1) X equals to D-Ala; (10)..(10) X equals to D-Ala),arterial oxygen saturation level,H5N1 influenza virus,significantly improved
same,oxygen saturation (lung function),H5N1 influenza virus,significant improvement in lung function
same,recovery from infection-induced weight loss,"[4]; dose-dependent, after day 8",partial recovery from infection-induced weight loss
same,weight gain by day 17,"[4]; p2TA 10 μg per mouse, Ribavirin 75 mg/kg i.p.",~20%
same,protection,[2],did not prove protective
same,prolongation of survival over untreated control,[3],"moderate, dose-dependent prolongation of survival"
same,protection,[3],no protection
same,effect on death,[3]; ip,delayed death
same,survival,[3]; ip,30%
same,IFN-γ level in lungs,[5],significantly reduce
same,IL-1α level in lungs,[5],significantly reduce
same,IL-1β level in lungs,[5],significantly reduce
same,IL-6 level in lungs,[5],significantly reduce
same,IL-10 level in lungs,[5],did not significantly reduce
same,monocyte chemoattractant protein-1 (MCP-1) level in lungs,[5],significantly reduce
SNGTIIHVK [p5TA],biological activity compared with p2TA,[6],biological activity similar to that of p2TA
YVNQTDIY [p4TA],biological activity compared with p2TA,[6],biological activity similar to that of p2TA
HKGLDSAV [p3TA],biological activity compared with p2TA,[6],biological activity similar to that of p2TA
